Test results as given in ChEMBL document CHEMBL3526141, “Characterization of human liver enzymes involved in the biotransformation of boceprevir, a hepatitis C virus protease inhibitor” (Drug Metab Dispos, 2011).

Tests used:
[1] = molecular target: T1, Aldo-keto reductase family 1 member C2 (Homo sapiens, UniProt P52895); experiment: Drug metabolism in human recombinant AKR1C2 expressing HEK293 cells treated with 20 uM boceprevir assessed as 1 mM ibuprofen-mediated inhibition of AKR1C2-mediated metabolite formation after 120 mins in presence of NADPH by LC-MS/MS/FSA method; format: ADME, cell-based; set-up: interact cpd dose 1 mM; details: hek293, 2 h
T1 sequence (P52895 whole entry): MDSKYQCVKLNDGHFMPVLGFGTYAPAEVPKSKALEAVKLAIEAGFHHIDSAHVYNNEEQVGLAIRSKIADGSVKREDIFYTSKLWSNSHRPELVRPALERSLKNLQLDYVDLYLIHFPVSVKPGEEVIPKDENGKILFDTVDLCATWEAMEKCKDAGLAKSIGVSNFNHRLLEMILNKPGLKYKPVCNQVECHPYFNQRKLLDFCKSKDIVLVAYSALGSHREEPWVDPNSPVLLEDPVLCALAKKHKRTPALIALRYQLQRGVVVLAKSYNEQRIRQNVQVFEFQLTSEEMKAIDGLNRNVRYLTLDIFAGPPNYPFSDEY

[2] = molecular target: T2, Aldo-keto reductase family 1 member C3 (Homo sapiens, UniProt P42330); experiment: Drug metabolism in human recombinant […] HEK293 cells treated with 20 uM boceprevir assessed as 1 mM BNPP-mediated inhibition of AKR1C3-mediated metabolite formation after 120 mins in presence of NADPH by LC-MS/MS/FSA method; format: ADME, cell-based; set-up: interact cpd dose 1 mM; details: hek293, 2 h
T2 sequence (P42330 whole entry): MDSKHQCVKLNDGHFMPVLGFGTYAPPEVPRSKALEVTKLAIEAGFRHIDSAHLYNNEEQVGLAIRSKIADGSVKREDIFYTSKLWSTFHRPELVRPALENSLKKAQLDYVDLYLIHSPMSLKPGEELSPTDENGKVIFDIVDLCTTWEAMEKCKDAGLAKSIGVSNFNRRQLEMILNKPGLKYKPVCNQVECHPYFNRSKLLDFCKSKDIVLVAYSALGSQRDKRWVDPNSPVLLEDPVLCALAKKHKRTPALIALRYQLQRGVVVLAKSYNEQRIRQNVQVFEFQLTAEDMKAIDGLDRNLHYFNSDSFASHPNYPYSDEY

[3] = molecular target: T1, Aldo-keto reductase family 1 member C2; experiment: Drug metabolism in human recombinant AKR1C2 expressing HEK293 cells treated with 20 uM boceprevir assessed as 100 uM flufenamic acid-mediated inhibition of AKR1C2-mediated metabolite formation after 120 mins in presence of NADPH by LC-MS/MS/FSA method; format: ADME, cell-based; set-up: interact cpd dose 100 uM; details: hek293, 2 h
[4] = Drug metabolism in human liver S9 fraction treated with 20 uM assessed as compound formation in presence of NADPH generating system by LC-MS/MS/FSA method; format: ADME, subcellular
Liver cytosol [5] = experiment: Drug metabolism in human liver cytosol at 20 uM assessed as (1R,2S,5S)-N-((2S,3R)-4-amino-1-cyclobutyl-3-hydroxy-4-oxobutan-2-yl)-3-((S)-2-(3-tert-butylureido)-3,3-dimethylbutanoyl)-6,6-dimethyl-3-azabicyclo[3.1.0]hexane-2-carboxamide formation in presence of pargyline by LC-MS/MS/FSA method; format: ADME
[6] = Drug excretion in human feces assessed as oxidative metabolites level; format: ADME; set-up: dosed compound name [14C]boceprevir
[7] = (§1) Drug metabolism in human liver S9 fraction at 20 uM assessed as (1R,2S,5S)-N-((2S,3R)-4-amino-1-cyclobutyl-3-hydroxy-4-oxobutan-2-yl)-3-((S)-2-(3-tert-butylureido)-3,3-dimethylbutanoyl)-6,6-dimethyl-3-azabicyclo[3.1.0]hexane-2-carboxamide formation in presence of pargyline by LC-MS/MS/FSA method; format: ADME, subcellular; details: s9, 20 µM
Liver cytosol [8] = experiment: Drug metabolism in human liver cytosol at 20 uM assessed as (1R,2S,5S)-N-((2S,3R)-4-amino-1-cyclobutyl-3-hydroxy-4-oxobutan-2-yl)-3-((S)-2-(3-tert-butylureido)-3,3-dimethylbutanoyl)-6,6-dimethyl-3-azabicyclo[3.1.0]hexane-2-carboxamide formation in presence of mefenamic acid by LC-MS/MS/FSA method; format: ADME
[9] = as §1, with “phenolphthalein” for “pargyline”; format: ADME, subcellular; details: s9, 20 µM
[10] = Drug metabolism in human liver S9 fraction at 20 uM assessed as (1R,2S,5S)-N-((2S,3R)-4-amino-1-cyclobutyl-3-hydroxy-4-oxobutan-2-yl)-3-((S)-2-(3-tert-butylureido)-3,3-dimethylbutanoyl)-6,6-dimethyl-3-azabicyclo[3.1.0]hexane-2-carboxamide formation in presence of BNPP by LC-MS/MS/FSA method; format: ADME, subcellular; details: s9, 20 µM
[11] = Drug metabolism in human liver S9 fraction at 20 uM assessed as (1R,2S,5S)-N-((2S,3R)-4-amino-1-cyclobutyl-3-hydroxy-4-oxobutan-2-yl)-3-((S)-2-(3-tert-butylureido)-3,3-dimethylbutanoyl)-6,6-dimethyl-3-azabicyclo[3.1.0]hexane-2-carboxamide formation in presence of menadione by LC-MS/MS/FSA method; format: ADME, subcellular; details: s9, 20 µM
[12] = Drug metabolism in human liver S9 fraction at 20 uM assessed as (1R,2S,5S)-N-((2S,3R)-4-amino-1-cyclobutyl-3-hydroxy-4-oxobutan-2-yl)-3-((S)-2-(3-tert-butylureido)-3,3-dimethylbutanoyl)-6,6-dimethyl-3-azabicyclo[3.1.0]hexane-2-carboxamide formation in presence of quercetin by LC-MS/MS/FSA method; format: ADME, subcellular; details: s9, 20 µM
Liver cytosol [13] = experiment: Drug metabolism in human liver cytosol at 20 uM assessed as (1R,2S,5S)-N-((2S,3R)-4-amino-1-cyclobutyl-3-hydroxy-4-oxobutan-2-yl)-3-((S)-2-(3-tert-butylureido)-3,3-dimethylbutanoyl)-6,6-dimethyl-3-azabicyclo[3.1.0]hexane-2-carboxamide formation in presence of quercetin by LC-MS/MS/FSA method; format: ADME
Cytochrome P450 4F12 = molecular target: T3, Cytochrome P450 4F12 (Homo sapiens, UniProt Q9HCS2); experiment: Drug metabolism assessed as human CYP4F12-mediated compound formation from 5 to 20 uM [14C]boceprevir after 120 mins by LC-MS/FSA method relative to total [14C]boceprevir; format: ADME; details: recombinant enzyme, 2 h
T3 sequence (Q9HCS2 whole entry): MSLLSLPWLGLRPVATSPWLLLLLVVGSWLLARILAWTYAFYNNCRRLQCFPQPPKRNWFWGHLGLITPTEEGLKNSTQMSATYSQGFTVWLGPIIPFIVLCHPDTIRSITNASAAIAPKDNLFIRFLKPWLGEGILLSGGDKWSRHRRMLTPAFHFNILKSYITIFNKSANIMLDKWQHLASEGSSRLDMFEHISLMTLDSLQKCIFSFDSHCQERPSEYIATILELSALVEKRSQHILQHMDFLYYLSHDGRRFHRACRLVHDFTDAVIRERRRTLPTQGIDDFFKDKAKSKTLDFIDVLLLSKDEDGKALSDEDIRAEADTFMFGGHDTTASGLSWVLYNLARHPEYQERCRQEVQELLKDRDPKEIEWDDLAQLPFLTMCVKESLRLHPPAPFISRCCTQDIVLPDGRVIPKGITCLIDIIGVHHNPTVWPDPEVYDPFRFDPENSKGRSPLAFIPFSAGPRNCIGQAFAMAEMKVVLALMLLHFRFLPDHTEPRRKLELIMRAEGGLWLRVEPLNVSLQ

Row | Structure (SMILES) | inhibition (INH) [1] [%] | inhibition (INH) [2] [%] | inhibition (INH) [3] [%] | Compound recovery [4] [%] | Compound recovery (Liver cytosol [5]) | Radiolabel recovery [6] [%] | Compound recovery [7] | Compound recovery (Liver cytosol [8]) | Compound recovery [9] | Compound recovery [10] | Compound recovery [11] | Compound recovery [12] | Compound recovery (Liver cytosol [13]) | Compound recovery (Cytochrome P450 4F12)
1 | CC(C)(C)NC(=O)N[C@H](C(=O)N1C[C@H]2[C@@H]([C@H]1C(=O)N[C@@H](CC1CCC1)[C@@H](O)C(N)=O)C2(C)C)C(C)(C)C | > 89 | 69 | > 89 | 28 |  |  |  |  |  |  |  |  |  | 
2 | CC(C)(C)NC(=O)N[C@H](C(=O)N1C[C@H]2[C@@H]([C@H]1C(=O)NC(CC1CCC1)C(=O)C(N)=O)C2(C)C)C(C)(C)C (some centres undefined) [BOCEPREVIR] |  |  |  |  | metabolite_detected | 50 | metabolite_detected | metabolite_not_detected | metabolite_not_detected | metabolite_not_detected | metabolite_not_detected | metabolite_not_detected | metabolite_not_detected | metabolite_not_detected
